In patent US10730889B2, “Amido spirocyclic amide and sulfonamide derivatives” (Forma TM, LLC, priority 2012, dated 2020):
Like-named read-outs stand apart in the source and are kept apart here.

System: A2780 cells
Test: In-vitro cell proliferation assay (SRB, 72 hours)
Format: cell-based
Settings: Homo sapiens, read-out: Cell Proliferation (IC50)
[1] = A2780, 72 h, A2780 cells, 72 hours, SRB

SMILES | IC50 [1] [nM] | also measured
CC(C)(C)NC(=O)N1CCC2(CC1)CC2CNC(=O)c1cc2ccncc2o1 (centres unmarked) [Example 182, N-[[6-(tert-butylcarbamoyl)-6-azaspiro[2.5]octan-2-yl]methyl]furo[2,3-c]pyndine-2-carboxamide] | 2000 | –
CC(C)NC(=O)N1CCC2(CC1)CC2CNC(=O)c1cc2ccncc2o1 (centres unmarked) [Example 183, N-[[6-(isopropylcarbamoyl)-6-azaspiro[2.5]octan-2-yl]methyl]furo[2,3-c]pyridine-2-carboxamide] | 2000 | –
O=C(NCC1CC12CCN(C(=O)NCC1CCCCC1)CC2)c1cc2ccncc2o1 (centres unmarked) [Example 184, N-[[6-(cyclohexylmethylcarbamoyl)-6-azaspiro[2.5]octan-2-yl]methyl]furo[2,3-c]pyridine-2-carboxamide] | 2000 | –
CCCNC(=O)N1CCC2(CC1)CC2CNC(=O)c1cc2ccncc2o1 (centres unmarked) [Example 185, N-[[6-(propylcarbamoyl)-6-azaspiro[2.5]octan-2-yl]methyl]furo[2,3-c]pyridine-2-carboxamide] | 2000 | –
O=C(NCC1CC12CCN(C(=O)NC1CCCCC1)CC2)c1cc2ccncc2o1 (centres unmarked) [Example 186, N-[[6-(cyclohexylcarbamoyl)-6-azaspiro[2.5]octan-2-yl)methyl]furo[2,3-c]pyridine-2-carboxamide] | 732 | –
O=C(NCC1CC12CCN(C(=O)Nc1ccccc1)CC2)c1cc2ccncc2o1 (centres unmarked) [Example 187, N-[[6-(phenylcarbamoyl)-6-azaspiro[2.5]octan-2-yl]methyl]furo[2,3-c]pyridine-2-carboxamide] | 2460 | –
N#CCC(=O)N1CCC2(CC1)CC2CNC(=O)N1Cc2ccncc2C1 (centres unmarked) [Example 191, N-[[6-(2-cyanoacetyl)-6-azaspiro[2.5]octan-2-yl]methyl]-1,3-dihydropyrrolo[3,4-c]pyridine-2-carboxamide] | 1040 | –
CC(C)(C)OC(=O)N1CCC2(CC1)CC(CNC(=O)c1cc3cnccc3[nH]1)C2 [Example 193, tert-butyl 2-[(1H-pyrrolo[3,2-c]pyridine-2-carbonylamino)methyl]-7-azaspiro[3.5]nonane-7-carboxylate] | 2000 | –
CC(C)(C)OC(=O)N1CCC2(CC1)CC(CNC(=O)c1cc3ccncc3o1)C2 [Example 194, tert-butyl 2-[(furo[2,3-c]pyridine-2-carbonylamino)methyl]-7-azaspiro[3.5]nonane-7-carboxylate] | 2000 | –
CC1(CC(=O)N2CCC3(CC2)CC3CNC(=O)c2cc3ccncc3o2)COC1 (centres unmarked) [Example 195, N-[[6-[2-(3-methyloxetan-3-yl)acetyl]-6-azaspiro[2.5]octan-2-yl]methyl]furo[2,3-c]pyridine-2-carboxamide] | 218 | –
CC(C)(C)NC(=O)N1CCC2(CC1)CC2CNC(=O)c1cc2cnccc2[nH]1 (centres unmarked) [Example 203, N-[[6-(tert-butylcarbamoyl)-6-azaspiro[2.5]octan-2-yl]methyl]-1H-pyrrolo[3,2-c]pyridine-2-carboxamide] | 2000 | –
N#Cc1cccc(CC(=O)N2CCC3(CC2)CC3CNC(=O)c2cc3cnccc3[nH]2)c1 (centres unmarked) [Example 206, N-[[6-[2-(3-cyanophenyl)acetyl]-6-azaspiro[2.5]octan-2-yl]methyl]-1H-pyrrolo[3,2-c]pyridine-2-carboxamide] | 2000 | –
N#Cc1ccc(CC(=O)N2CCC3(CC2)CC3CNC(=O)N2Cc3ccncc3C2)cc1 (centres unmarked) [Example 207, N-[[6-[2-(4-cyanophenyl)acetyl]-6-azaspiro[2.5]octan-2-yl]methyl]-1,3-dihydropyrrolo[3,4-c]pyridine-2-carboxamide] | – | IC50 (A2780 cells, 72 hours, SRB): 136 nM
O=C(NCc1ccccc1)N1CCC2(CC1)CC2CNC(=O)N1Cc2ccncc2C1 (centres unmarked) [Example 210, N-[[6-(benzylcarbamoyl)-6-azaspiro[2.5]octan-2-yl]methyl]-1,3-dihydropyrrolo[3,4-c]pyridine-2-carboxamide] | 316 | –
O=C(NCC1CC12CCN(S(=O)(=O)Cc1ccccc1)CC2)N1Cc2ccncc2C1 (centres unmarked) [Example 211, N-[(6-benzylsulfonyl-6-azaspiro[2.5]octan-2-yl)methyl]-1,3-dihydropyrrolo[3,4-c]pyridine-2-carboxamide] | 131 | –
N#Cc1ccc(CC(=O)N2CCC3(CC2)CC3CNC(=O)c2cc3cnccc3[nH]2)cc1 (centres unmarked) [Example 216, N-[[6-[2-(4-cyanophenyl)acetyl]-6-azaspiro[2.5]octan-2-yl]methyl]-1H-pyrrolo[3,2-c]pyridine-2-carboxamide] | 1340 | –
CC1(OC(=O)N2CCC3(CC2)CC3CNC(=O)N2Cc3ccncc3C2)CCC1 (centres unmarked) [Example 228, (1-methylcyclobutyl) 2-[(1,3-dihydropyrrolo[3,4-c]pyridine-2-carbonylamino)methyl]-6-azaspiro[2.5]octane-6-carboxylate] | – | IC50 (A2780, 72 h): 4.74 nM
Cc1cccnc1C(=O)N1CCC2(CC1)CC2CNC(=O)c1cc2ccncc2o1 (centres unmarked) [Example 231, N-[[6-(3-methylpyridine-2-carbonyl)-6-azaspiro[2.5]octan-2-yl]methyl]furo[2,3-c]pyridine-2-carboxamide] | 516 | –
Cc1cnccc1C(=O)N1CCC2(CC1)CC2CNC(=O)c1cc2ccncc2o1 (centres unmarked) [Example 232, N-[[6-(3-methylpyridine-4-carbonyl)-6-azaspiro[2.5]octan-2-yl]methyl]furo[2,3-c]pyridine-2-carboxamide] | 207 | –

The next lines start with results.

IC50 [1] [nM] | SMILES | also measured
3.31 | Cc1nn(C)c(C)c1C(=O)N1CCC2(CC1)CC2CNC(=O)c1cc2ccncc2o1 (centres unmarked) [Example 181, N-[[6-(1,3,5-trimethylpyrazole-4-carbonyl)-6-azaspiro[2.5]octan-2-yl]methyl]furo[2,3-c]pyridine-2-carboxamide] | –
45.3 | CC(C)N1CCC(CC(=O)N2CCC3(CC2)CC3CNC(=O)N2Cc3ccncc3C2)CC1 (centres unmarked) [Example 188, N-[[6-[2-(1-isopropyl-4-piperidyl)acetyl]-6-azaspiro[2.5]octan-2-yl]methyl]-1,3-dihydropyrrolo[3,4-c]pyridine-2-carboxamide] | –
50.7 | O=C(Cc1ccncc1)N1CCC2(CC1)CC2CNC(=O)N1Cc2ccncc2C1 (centres unmarked) [Example 190, N-[[6-[2-(4-pyridyl)acetyl]-6-azaspiro[2.5]octan-2-yl]methyl]-1,3-dihydropyrrolo[3,4-c]pyridine-2-carboxamide] | –
3.67 | O=C(CC1CCCCC1)N1CCC2(CC1)CC2CNC(=O)N1Cc2ccncc2C1 (centres unmarked) [Example 196, N-[[6-(2-cyclohexylacetyl)-6-azaspiro[2.5]octan-2-yl]methyl]-1,3-dihydropyrrolo[3,4-c]pyridine-2-carboxamide] | –
61.8 | O=C(CN1CCOCC1)N1CCC2(CC1)CC2CNC(=O)N1Cc2ccncc2C1 (centres unmarked) [Example 198, N-[[6-(2-morpholinoacetyl)-6-azaspiro[2.5]octan-2-yl]methyl]-1,3-dihydropyrrolo[3,4-c]pyridine-2-carboxamide] | –
24.7 | CC(C)(C)OC(=O)N1CCC2(CC1)CC(CNC(=O)N1Cc3ccncc3C1)C2 [Example 200, tert-butyl 2-[(1,3-dihydropyrrolo[3,4-c]pyridine-2-carbonylamino)methyl]-7-azaspiro[3.5]nonane-7-carboxylate] | –
27.9 | O=C(Cc1cc(F)cc(F)c1)N1CCC2(CC1)CC2CNC(=O)N1Cc2ccncc2C1 (centres unmarked) [Example 201, N-[[6-[2-(3,5-difluorophenyl)acetyl]-6-azaspiro[2.5]octan-2-yl]methyl]-1,3-dihydropyrrolo[3,4-c]pyridine-2-carboxamide] | –
28.2 | O=C(Cc1cccc(C(F)(F)F)c1)N1CCC2(CC1)CC2CNC(=O)N1Cc2ccncc2C1 (centres unmarked) [Example 202, N-[[6-[2-[3-(trifluoromethyl]phenyl]acetyl]-6-azaspiro[2.5]octan-2-yl]methyl]-1,3-dihydropyrrolo[3,4-c]pyridine-2-carboxamide] | –
130 | COC(=O)C(C)(C)OC(=O)N1CCC2(CC1)CC2CNC(=O)c1cc2ccncc2o1 (centres unmarked) [Example 205, (2-methoxy-1,1-dimethyl-2-oxo-ethyl) 2-[(furo[2,3-c]pyridine-2-carbonylamino)methyl]-6-azaspiro[2.5]octane-6-carboxylate] | –
26.1 | O=C(NCC1CC12CCN(C(=O)Nc1ccccc1)CC2)N1Cc2ccncc2C1 (centres unmarked) [Example 208, N-[[6-(phenylcarbamoyl)-6-azaspiro[2.5]octan-2-yl]methyl]-1,3-dihydropyrrolo[3,4-c]pyridine-2-carboxamide] | –
65.8 | CC(C)(CO)OC(=O)N1CCC2(CC1)CC2CNC(=O)c1cc2ccncc2o1 (centres unmarked) [Example 215, (2-hydroxy-1,1-dimethyl-ethyl) 2-[(furo[2,3-c]pyridine-2-carbonylamino)methyl]-6-azaspiro[2.5]octane-6-carboxylate] | –
25.4 | Cn1cc(C(=O)N2CCC3(CC2)CC3CNC(=O)N2Cc3ccncc3C2)cn1 (centres unmarked) [Example 221, N-[[6-(1-methylpyrazole-4-carbonyl)-6-azaspiro[2.5]octan-2-yl]methyl]-1,3-dihydropyrrolo[3,4-c]pyridine-2-carboxamide] | –
11.7 | CCn1nc(C)c(C(=O)N2CCC3(CC2)CC3CNC(=O)c2cc3c(o2)C=NCC3)c1C (centres unmarked) [Example 222, N-[[6-(1-isopropyl-3,5-dimethyl-pyrazole-4-carbonyl)-6-azaspiro[2.5]octan-2-y]methyl]furo[2,3-c]pyridine-2-carboxamide] | –
1.92 | Cc1nn(-c2ccc(F)cc2)c(C)c1C(=O)N1CCC2(CC1)CC2CNC(=O)c1cc2ccncc2o1 (centres unmarked) [Example 223, N-[[6-[1-(4-fluorophenyl)-3,5-dimethyl-pyrazole-4-carbonyl]-6-azaspiro[2.5]octan-2-yl]methyl]furo[2,3-c]pyridine-2-carboxamide] | –
18.4 | O=C(CCN1CCOCC1)N1CCC2(CC1)CC2CNC(=O)N1Cc2ccncc2C1 (centres unmarked) [Example 229, N-[[6-(3-morpholinopropanoyl)-6-azaspiro[2.5]octan-2-yl)methyl]-1,3-dihydropyrrolo[3,4-c]pyridine-2-carboxamide] | –
29.9 | O=C(NCC1CC12CCN(C(=O)C(F)(F)c1ccccc1)CC2)N1Cc2ccncc2C1 (centres unmarked) [Example 230, N-[[6-(2,2-difluoro-2-phenyl-acetyl)-6-azaspiro[2.5]octan-2-yl]methyl]-1,3-dihydropyrrolo[3,4-c]pyridine-2-carboxamide] | –
